Measured values published in patent publication US20140023611A1 (priority 2010, published 2014).

What was measured:
rat NaP2b (SLC34A2) [1] = biological target: T1, rat NaP2b (SLC34A2) (Rattus norvegicus, UniProt Q9JJ09); assay: NaP2b-mediated Pi transport (33P uptake) in transfected HEK293 cells, rat NaP2b; assay type: cell-based; settings: Structure (V) examples, Table 2; rat NaP2b, HEK293; read-out: pIC50 Range (converted)
T1 construct: host or cells: HEK293
T1 sequence (Q9JJ09 1-695): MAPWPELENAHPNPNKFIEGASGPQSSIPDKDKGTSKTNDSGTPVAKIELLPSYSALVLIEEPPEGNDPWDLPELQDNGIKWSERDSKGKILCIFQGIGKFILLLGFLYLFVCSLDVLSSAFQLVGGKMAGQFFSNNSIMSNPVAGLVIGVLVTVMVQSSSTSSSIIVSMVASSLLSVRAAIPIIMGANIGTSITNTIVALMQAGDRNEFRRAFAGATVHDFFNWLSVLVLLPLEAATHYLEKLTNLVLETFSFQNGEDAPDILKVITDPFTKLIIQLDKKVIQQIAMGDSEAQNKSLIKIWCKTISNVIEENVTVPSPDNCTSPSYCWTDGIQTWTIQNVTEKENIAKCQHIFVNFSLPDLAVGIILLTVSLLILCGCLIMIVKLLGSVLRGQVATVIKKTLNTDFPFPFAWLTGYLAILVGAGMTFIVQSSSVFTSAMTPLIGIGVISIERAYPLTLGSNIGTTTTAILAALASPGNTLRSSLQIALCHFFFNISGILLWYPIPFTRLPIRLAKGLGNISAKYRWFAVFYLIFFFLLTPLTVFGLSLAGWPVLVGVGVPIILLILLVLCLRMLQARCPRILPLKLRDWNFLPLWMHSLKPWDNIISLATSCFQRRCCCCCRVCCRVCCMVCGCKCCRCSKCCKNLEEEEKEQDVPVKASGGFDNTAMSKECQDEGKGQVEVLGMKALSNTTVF
Method: HEK293 cells were obtained from the American Type Culture collection and propagated per their instructions. Expression clones for rat and human NaP2b (SLC34A2) were obtained from Open Biosystems (Catalog numbers MRN1768-9510282, and MHS1010-99823026, respectively). The sequence of the human protein was mutated to insert a threonine after residue 37, and to introduce a N39D mutation.
(§1) The rate of phosphate (Pi) uptake into HEK293 cells was measured using a modification of the method described by Mohrmann et al. (Mohrmann, I., Mohrmann, M., Biber, J., and Murer, H. (1986) Am. J. Phys. 250(3 Pt 1):G323-30.) Transfected HEK293 cells were treated with a pharmacological agent to minimize endogenous PiT-mediated phosphate transport activity, such that the only remaining sodium-dependent phosphate transport activity is that which was bestowed by introduction of the NaP2b genes.
(§2) Cells were seeded into 96-well plates at 25,000 cells/well and cultured overnight. Lipofectamine 2000 (Invitrogen) was used to introduce the NaP2b cDNA, and the cells were allowed to approach confluence during a second overnight incubation. […] Cells were then overlayed with either choline uptake buffer or sodium uptake buffer (14 mM Tris, 137 mM sodium chloride, 5.4 mM KCl, 2.8 mM CaCl2, 1.2 mM MgSO4, 100 uM KH2PO4, PiT-silencing agent, 1 mg/mL Bovine Serum Albumin, pH 7.4) containing 6-9 uCi/mL ^33P orthophosphoric acid (Perkin Elmer) and test compound. Each compound was tested at twelve concentrations ranging from 0.1 nM to 30 uM. Assays were run in duplicate.
After incubation for 3-30 minutes at room temperature, assay mixtures were removed, and the cells were washed twice with ice cold stop solution (137 mM sodium chloride, 14 mM Tris, pH 7.4). Cells were lysed by addition of 20 μL 0.1% Tween 80 followed by 100 μL scintillation fluid, and counted using a TopCount (Perkin Elmer).
pIC50 (the negative log of the IC50) values of the test compounds were calculated using GraphPad Prism.
HEK293 cells were obtained from the American Type Culture collection and propagated per their instructions. Expression clones for rat and mouse NaP2b (SLC34A2) cDNAs were obtained from Open Biosystems (Catalog numbers MRN1768-9510282 and MMM1013-98478398 respectively).
as §1, with “phosphate” for “phosphate (Pi)”
as §2, with “agent, 0.1% wt/v bovine serum albumin,” for “agent, 1 mg/mL Bovine Serum Albumin,”, “Each compounds” for “Each compound”
After incubation for 3-30 minutes at room temperature, assay mixtures were removed, and the cells were washed twice with ice cold stop solution (137 mM sodium chloride, 14 mM Tris, pH 7.4).

[2] = Stability of compounds in simulated gastric and intestinal fluid; assay type: in vitro ADME; settings: Structure (V) examples, Table 3, 3 hr
Method: (§3) Test compounds were incubated at 1-20 μM in simulated gastric fluid (SGF; standard USP solution with 3 mg/mL pepsin) or simulated intestinal fluid (SIF; standard USP solution with 3 mg/mL pancreatin) for 3 hr or 6 hr. HPLC-UV or HPLC-MS were used to determine test compound levels using peak area %. Results (Table 5) were reported as the percentage of test compound remaining after incubation in a given condition relative to test compound present at t=0 in the same condition.
as §3, with “3” for “3 hr or 6”, “3)” for “5)”

[3] = system: Uptake of Phosphorus from the Intestine; assay: In vivo bolus phosphorus challenge; parameters: species or system rat; settings: Sprague-Dawley rats on low-phosphorus diet; oral Drug Dose 30, 15 min before phosphate bolus; serum 30 min post bolus
Method: By pretreating animals with a low phosphorus diet followed by the subsequent dosing of a phosphorus bolus, serum phosphorus levels were monitored after 30 minutes as a surrogate for intestinal phosphorus absorption. […] The in vivo bolus phosphorus challenge model used here mimics this model in rats.
Male, 7-week-old Sprague-Dawley rats (Charles-River laboratories international, Hollister, Calif.) were allowed to acclimatize for a minimum of 3 days before switching to a synthetic low-phosphorus diet (TD.85010, Harlan Teklad, Madison, Wis.) which contains 0.1% phosphorus and 0.6% calcium. At day 5, testing compounds or vehicle alone (as indicated) were orally administered at the indicated dose in a volume of 5 ml/kg, followed by a bolus gavage of monobasic sodium phosphate (1 mmol in 1 ml) 15 min after compound dosing. Serum was collected via retroorbital bleeding 30 min post phosphate bolus and phosphate levels were determined utilizing an ACE ALERA blood chemistry analyzer (Alfa Wassermann Diagnostic Technologies, West Caldwell, N.J.).
The extent of inhibition by test compounds on the elevation of serum phosphate levels in response to the bolus of phosphorus is shown in Table 12 (data are expressed as % Inhibition, with 6-10 animals per data point). The differences between groups were evaluated by one-way analysis of variance with Dunnett's post hoc tests.

rat NaP2b (SLC34A2) [4] = biological target: T1, rat NaP2b (SLC34A2); assay: Inhibition of NaP2b-mediated Pi (33P) uptake in transfected HEK293 cells, rat NaP2b; assay type: cell-based; settings: 33P Pi uptake, 0.1 mM phosphate, value given as pIC50 range
Summary of the method: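 HEK293 cells were transiently transfected with NaP2b cDNA using Lipofectamine and grown near confluence. Compounds were tested at twelve concentrations from 0.1 nM to 30 uM in duplicate, and 33P-phosphate uptake was counted by scintillation after lysis. Results are expressed as pIC50.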

[5] = system: Uptake of Phosphorus from the Intestine; assay: In vivo co-dosing in chow (urine P out / P consumed); settings: Rattus norvegicus, feed or water; rats, compound in chow; mean drug dose 101 mg/kg/day; read-out: Mean % inhibition Urine Pout/P consumed
Description: Male, 7-week-old Sprague-Dawley rats (Charles-River laboratories international, Hollister, Calif.) were allowed to acclimate for a minimum of 3 days. The experiment was initiated by switching animals to a synthetic diet (0.6% phosphorus and 0.6% calcium, Harlan Teklad TD.84122) for four days. After this time, the animals were placed into metabolic cages for daily monitoring of food and water consumption, as well as urine and fecal collections. Test compounds were incorporated into the powdered diet listed above containing 3% chocolate flavoring (w/w, BioServ #7345) at 1.3 mg test compound per gram of diet to achieve an average daily nominal dose of 100 mg/kg/day. The actual dose received by each animal was later determined by measuring prepared diet consumption and body weight. Urine samples were collected in three daily periods from 24-48, 48-72, and 72-96 hours of drug dosing. Averaging these three 24 h periods allows for the more representative measurements of urination, fecal excretion, food consumption and water uptake for each animal. Phosphorus levels in the urine were determined by anion exchange chromatography using a Dionex ICS-3000 ion chromatography system. Urine samples were diluted 1:500 or 1:1000 and injected onto an IonPac AS18 analytical column (2×250 mm) using a potassium hydroxide eluent. Elution of urine phosphate ions was monitored via conductivity detector and reported as ppm relative to a standard ion solution containing phosphate. Daily urinary P output relative to the P consumed in the prepared diet for each animal was calculated. The percentage inhibition of phosphorus absorption was estimated by determining the reduction of this ratio compared to the control group (animals with no drug in chow). The differences between the means of control and treated groups were evaluated by t tests. In all experiments, one group was always included that had Renvela powder blended into their chow at 0.9% targeting a dose of 750 mg/kg.

[6] = Stability of compounds in simulated intestinal fluid (SIF); assay type: in vitro ADME; settings: simulated intestinal fluid (3 mg/mL pancreatin), incubation time 6 hr, relative to t=0
Summary of the method: (§4)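 Compounds at […] were incubated 3 or 6 hr in USP simulated gastric fluid with 3 mg/mL pepsin or simulated intestinal fluid with 3 mg/mL pancreatin. Remaining compound was quantified by HPLC-UV or HPLC-MS peak area % and reported as percent of the t=0 level in the same medium.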

[7] = Stability of compounds in simulated gastric fluid (SGF); assay type: in vitro ADME; settings: simulated gastric fluid (3 mg/mL pepsin), incubation time 6 hr, relative to t=0
Summary of the method: as §4

NaPi2b = assay: Competition with phosphate: Pi uptake assay repeated at 2.1 vs 0.1 mM phosphate; assay type: cell-based; settings: potency at 2.1 vs 0.1 mM phosphate
Description: For example, a phosphate uptake assay can be performed and the IC50 values for a compound at different phosphate concentrations can be determined (e.g., “Enzyme kinetics”, I. Segel, 1975, John-Wiley & Sons, p. 123). IC50 values for non-competitive inhibitors will remain the same or similar with respect to the phosphate concentration, whereas IC50 values for competitive inhibitors will increase (i.e lose potency) as phosphate concentration increases.
To ascertain if an inhibitor was competitive for binding with phosphate, the procedure was repeated, but raising the concentration of the substrate in the assay mixture from 0.1 to 2.1 mM phosphate.

[8] = Fecal recovery of orally administered compounds; assay type: in vivo, Sprague-Dawley rats; settings: Structure (I) examples, Table 16; rat, oral gavage, feces collected until 48 hr after dosing
Description: (§5) The animals were kept in metabolic cages and feces were collected from the time of dosing until 48 hr after dosing. Upon collection, feces were dried by lyophilization and ground to a visually homogenous powder. Duplicate samples of ground feces from each individual animal were weighed out and extracted using organic solvent. […] Extraction conditions were not optimized for individual compounds, and thus may represent a minimal level of recovery.
as §5, with “collection, feces was dried by” for “collection, feces were dried by”
as §5, with “collection, feces was dried by” for “collection, feces were dried by”
The animals were kept in metabolic cages and feces were collected from the time of dosing until 48 hr after dosing. Upon collection, feces was dried by lyophilization and ground to a visually homogenous powder. Duplicate samples of ground feces from each individual animal were weighed out and extracted using organic solvent.

[9] = Determination of compound Cmax and AUC after oral gavage (plasma LC-MS/MS); assay type: in vivo, Sprague-Dawley rats; settings: Sprague-Dawley, Structure (I) examples, Table 15, rat, actual oral dose 3-15 mg/kg, plasma 0.5-4 h
Summary of the method: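 Sprague-Dawley rats dosed by oral gavage at nominal 2.5 or 10 mg/kg; blood drawn at 0.5, 1, 2 and 4 h into K2EDTA. Plasma protein-precipitated with acetonitrile plus internal standard and analysed by LC-MS/MS against a plasma standard curve to derive Cmax and AUC.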

O=C(O)CNC(=O)CCSCc1cccc(C(=O)Nc2ccc(N3CCCCC3)cc2C(=O)N/N=C/c2ccc(Cl)c(C(F)(F)F)c2)c1 [Ex. 50, (E)-2-(3-(3-(2-(2-(4-chloro-3-(trifluoromethyl)benzylidene)hydrazinecarbonyl)-4-(piperidin-1-yl)phenylcarbamoyl)benzylthio)propanamido)acetic acid]
IC50 (rat NaP2b (SLC34A2) [1]): 100 to 794 nM
% remaining, SGF ([2]; simulated gastric fluid): 7%
% remaining, SIF ([2]; simulated intestinal fluid): 90%

O=C(O)CCSCc1cccc(C(=O)Nc2ccc(N3CCCCC3)cc2-c2cc(C(=O)NCc3cc(C(F)(F)F)cc(C(F)(F)F)c3)ccn2)c1 [Example 1.32]
% Inhibition of Serum P elevation [3]: 20-30%
IC50 (rat NaP2b (SLC34A2) [4]): 1000 to 7940 nM

CN(CCN1CCOCC1)C(=O)c1cccc(C(=O)Nc2ccc(N3CCCCC3)cc2-c2cc(C(=O)N[C@H]3CCCc4ccccc43)ccn2)c1.Cl [Example 37, (S)—N1-Methyl-N1-(2-morpholinoethyl)-N3-(4-(piperidin-1-yl)-2-(4-((1,2,3,4-tetrahydronaphthalen-1-yl)carbamoyl)pyridin-2-yl)phenyl)isophthalamide]
inhibition in vivo at 101 mg/kg/day [5]: ≤ 10%
% remaining, SIF [6]: >80%
% remaining, SGF [7]: >80%
Competitive with respect to Pi? (NaPi2b): No
% recovered in feces [8]: <20%
AUC [9]: < 30 ng·h/mL
Cmax [9]: < 10 ng/mL
